Measurements from patent US8003659B2, “Macrocyclic serine protease inhibitors” (Indenix Pharmaceuticals, Inc., priority 2008, dated 2011).
Like-named read-outs stand apart in the source and are kept apart here.

Key:
[1] = system: mutant protease A156S; assay: Resistance profile, mutant protease A156S; assay type: biochemical, HCV; settings: ratio of inhibitory activity against mutant enzyme over non-mutant enzyme
Experimental: (§1) General procedure: Measurement of the inhibitory effect of compounds on HCV protease activity was performed with the SensoLyte™ 620 HCV Protease Assay kit from AnaSpec, Inc. (San Jose, Calif.) under conditions described by the supplier using 1.2 nM HCV NS3-NS4A protease, which was obtained according to Taremi et al. (Protein Science, 1998, 7, 2143-2149). The compounds were tested at a variety of concentrations in assay buffer containing a final DMSO concentration of 5%. Reactions were allowed to proceed for 60 min at room temperature and fluorescence measurements were recorded with a Tecan Infinity Spectrofluorimeter. The IC50 values were determined from the percent inhibition versus concentration data using a sigmoidal non-linear regression analysis based on four parameters with Tecan Magellan software.
(§2) Compounds were evaluated against three mutant proteases R155Q, A156S, and D168A, as summarized in Table 8, wherein A represents a value smaller than 1, and B represents a value between 1 to 10, and C represents a value greater than 10. The fold of change in inhibitory activity was determined by measuring the ratio of the inhibitory activity of a compound against a mutant enzyme over the inhibitory activity of the same compound against non-mutant enzyme. The inhibitory activity was determined using the procedure as described in Example 31.

[2] = system: mutant protease R155Q; assay: Resistance profile, mutant protease R155Q; assay type: biochemical, HCV; settings: ratio of inhibitory activity against mutant enzyme over non-mutant enzyme
Experimental: as §1, §2

[3] = Cytotoxicity evaluation (Cell Titer 96 AQueous One Solution Cell Proliferation Assay); assay type: cell-based; settings: human; GS4.1 cells, cellular viability
Experimental: (§3) For cytotoxicity evaluation, GS4.1 cells were treated with compounds as described above and cellular viability was monitored using the Cell Titer 96 AQueous One Solution Cell Proliferation Assay (Promega). CC50 values were determined from the % cytotoxicity versus concentration data with Tecan Magellan software as described above.

[4] = biological target: T1, HCV NS3-NS4A protease (Hepatitis C virus genotype 1b, UniProt P26663); assay: HCV Protease Assay (SensoLyte 620 HCV Protease Assay kit); assay type: biochemical; settings: 1.2 nM HCV NS3-NS4A protease, 60 min at room temperature, 5% DMSO
T1 construct: made in house
T1 sequence (P26663 1027-1208): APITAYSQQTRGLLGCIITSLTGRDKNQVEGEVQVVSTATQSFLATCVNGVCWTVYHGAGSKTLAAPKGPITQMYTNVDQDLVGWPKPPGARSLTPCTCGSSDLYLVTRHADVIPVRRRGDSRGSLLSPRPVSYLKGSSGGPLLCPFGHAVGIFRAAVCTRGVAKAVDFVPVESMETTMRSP
Procedure, shortened: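 Protease at 1.2 nM, run with the SensoLyte 620 fluorogenic kit under supplier conditions, with compounds at several concentrations in buffer with 5% final DMSO. Reactions ran 60 min at room temperature before fluorescence reading; IC50 from four-parameter sigmoidal fit of percent inhibition.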

[5] = system: HCV genotype 2a infectious virus; assay: HCV genotype 2a infectious virus assay; assay type: cell-based, HCV (strain JFH-1; genotype 2a); settings: Hepatitis C virus
Experimental: (§4) Compounds were tested in a HCV genotype 2a infectious virus assay and the results are summarized in Table 7, wherein A represents a value smaller than 1 μM, and B represents a value between 1 μM to 10 μM, C represents a value between 10 μM to 75 μM and D represents a value greater than 75 μM.
The HCV in vitro infection core ELISA assay measures the ability of a test compound to inhibit replication of an infectious HCV (strain JFH-1; genotype 2a) in cell culture. […] We have developed this model for determining the efficacy of antiviral compounds against an infectious virus in vitro using HCV producing cells (HPC), a proprietary Huh-7-derived cell sublineage capable of propagating the JFH-1 HCV virus. The readout of the assay is quantification of HCV core protein by ELISA 5 days post infection with JFH-1 virus and treatment with a test compound.
Ninety-six-well Corning Costar plates were seeded with HPC cells at a density of 3.0×10^3 cells per well in 50 μL of Huh-7 media. Compound stock solutions were made up freshly in Huh-7 media (DMEM (containing glucose, L-glutamine and sodium pyruvate), 10% FBS, 100 IU/mL penicillin, 100 μg/mL streptomycin, 2 mM GlutaMAX, 1% MEM non-essential amino acids) as 2× stock. Seven additional 3-fold drug dilutions were prepared from the 2× stocks in Huh-7 media. At least 4 hours after HPC cells were seeded, the media in the 96-well culture plates was aspirated and 50 μL of each drug dilution and 50 μL of JFH-1 HCV was added to each well.
At 16 hrs post treatment and infection, the virus inoculum was removed by aspiration. The cultures were treated at the same final concentrations of drug diluted to 1× in Huh-7 media to a final volume of 200 μL. Cells were incubated in the presence of drug for 4 additional days at 37° C./5% CO2.
Media was removed from the plates by aspiration. Cells were fixed with 250 μL 1:1 acetone:methanol for 90 seconds, washed once in PBS and then three times with 1×KPL wash solution. The assay plates were then blocked with 150 μL/well 10% FBS-TNE (50 mM Tris-HCl (pH 7.5; Sigma), 100 mM NaCl, 1 mM EDTA with 10% FBS) for 1 hr at room temperature. Cells were washed three times with 1×KPL wash solution and incubated with 100 μL/well anti-hepatitis C core mAb (1 mg/mL stock diluted 1:500 in 10% FBS-TNE) for 2 hours at 37° C. Cells were washed three times with 1×KPL wash solution and incubated with 100 μL/well HRP-goat anti-mouse antibody (diluted 1:2,500 in 10% FBS-TNE) for 1 hr at 37° C.
OPD solution was prepared using 1 OPD tablet+12 mL citrate/phosphate buffer (16 mM citric acid, 27 mM Na2HPO4) plus 5 μL 30% H2O2 per plate. Cells were washed three times with 1×KPL wash solution and developed with 100 μL/well OPD solution for 30 minutes in the dark at room temperature. The reaction was stopped with 100 μL/well of 2NH2SO4, and absorbance measured at A490 nm in a Victor^3 V 1420 multilabel counter (Perkin Elmer). The EC50 values for each compound were calculated from dose response curves from the resulting best-fit equations determined by Microsoft Excel and XLfit 4.1 software. The negative control for inhibition of virus replication was untreated HPC cells infected with the JFH-1 HCV virus strain. The negative ELISA control was untreated, uninfected HPC cells. The positive ELISA control was untreated HPC cells infected the JFH-1 HCV virus strain.

[6] = Cytotoxicity (CC50) in the genotype 1b replicon assay; assay type: cell-based; settings: human, genotype 1b replicon assay as described in Example 32
Experimental: as §3
as §4, with “a” for “a HCV”, “1b replicon” for “2a infectious virus”, “assay as described in Example 32” for “assay”, “6,” for “7,”

[7] = system: Huh-7 cells containing HCV Con1 subgenomic replicon (GS4.1 cells); assay: HCV Replicon Assay (NS4A ELISA); assay type: cell-based; settings: Hepatitis C virus, Huh-7, 72 hr, NS4A protein by ELISA
Procedure, shortened: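 GS4.1 cells (Huh-7 with HCV Con1 subgenomic replicon) given ten 2-fold compound dilutions (top 75 μM) or a single 15 μM dose in 0.5% DMSO for 72 h at 37 °C. NS4A measured by cell ELISA (A492); EC50 from four-parameter sigmoidal fit, single-dose results as % inhibition at 15 μM.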

[8] = system: genotype 1b replicon; assay: Antiviral activity in a genotype 1b replicon assay; assay type: cell-based, HCV; settings: Hepatitis C virus
Experimental: General procedure: Huh-7 cells containing HCV Con1 subgenomic replicon (GS4.1 cells) were grown in Dulbecco's Modified Eagle Medium (DMEM) supplemented with 10% fetal bovine serum (FBS), 2 mM L-glutamine, 110 mg/L sodium pyruvate, 1× non-essential amino acids, 100 U/mL penicillin-streptomycin, and 0.5 mg/mL G418 (Invitrogen). For dose-response testing, the cells were seeded in 96-well plates at 7.5×10^3 cells/well in a volume of 50 μL, and incubated at 37° C./5% CO2. Three hours after plating, 50 μL of ten 2-fold serial dilutions of compounds (highest concentration, 75 μM) were added, and cell cultures were incubated at 37° C./5% CO2 in the presence of 0.5% DMSO. Alternatively, compounds were tested at a single concentration of 15 μM. In all cases, Huh-7 cells lacking the HCV replicon served as negative control. The cells were incubated in the presence of compounds for 72 hr after which they were monitored for expression of the NS4A protein by enzyme-linked immunosorbent assay (ELISA). For this, the plates were then fixed for 1 min with acetone/methanol (1:1, v/v), washed twice with phosphate-buffered saline (PBS), 0.1% Tween 20, blocked for 1 hr at room temperature with TNE buffer containing 10% FBS and then incubated for 2 hr at 37° C. with the anti-NS4A mouse monoclonal antibody A-236 (ViroGen) diluted in the same buffer. After washing three times with PBS, 0.1% Tween 20, the cells were incubated 1 hr at 37° C. with anti-mouse immunoglobulin G-peroxidase conjugate in TNE, 10% FBS. After washing as described above, the reaction was developed with O-phenylenediamine (Zymed). The reaction was stopped after 30 min with 2 NH2SO4, and absorbance was read at 492 nm using Sunrise Tecan spectrophotometer. EC50 values were determined from the % inhibition versus concentration data using a sigmoidal non-linear regression analysis based on four parameters with Tecan Magellan software. When screening at a single concentration, the results were expressed as % inhibition at 15 μM.
as §4, with “a” for “a HCV”, “1b replicon” for “2a infectious virus”, “assay as described in Example 32” for “assay”, “6,” for “7,”

[9] = system: mutant protease D168A; assay: Resistance profile, mutant protease D168A; assay type: biochemical, HCV; settings: ratio of inhibitory activity against mutant enzyme over non-mutant enzyme
Experimental: as §1, §2

[10] = genotype 1b replicon assay as described in Example 32, read-out: EC50

COc1ccc2c(O[C@H]3C[C@H]4C(=O)N(C)CCCC/C=C\[C@@H]5C[C@@]5(C(=O)NS(=O)(=O)C5(C)CC5)NC(=O)N4C3)cc(-c3nc(C(C)C)cs3)nc2c1C [Compound 56b, (Z)-(4R,6S,15S,17S)-[17-[7-methoxy-8-methyl-2-(4-isopropylthiazol-2-yl)quinolin-4-yloxy]-13-N-methyl-2,14-dioxo-1,3,13-triazatricyclo[13.3.0.0]octadec-7-en-4-yl]carbonyl(1-methyl-cyclopropyl)sulfonamide]
Fold-Change A156S [1]: A (A represents a value smaller than 1)
Fold-Change R155Q [2]: A (A represents a value smaller than 1)
CC50 [3]: > 75 µM
IC50 [4]: < 1 µM
EC50 [5]: 1 to 10 µM
CC50 [6]: 10 to 75 µM
EC50 [7]: < 1 µM
EC50 [8, 10]: < 1 µM
Fold-Change D168A [9]: C (C represents a value greater than 10)

COc1ccc2c(O[C@H]3C[C@H]4C(=O)N(C)CCCC/C=C\[C@@H]5C[C@@]5(C(=O)NS(=O)(=O)C5(C)CC5)NC(=O)N4C3)cc(-c3nc(C(C)C)cs3)nc2c1Cl [Compound 56d, (Z)-(4R,6S,15S,17S)-[17-[8-chloro-7-methoxy-2-(4-isopropylthiazol-2-yl)quinolin-4-yloxy]-13-N-methyl-2,14-dioxo-1,3,13-triazatricyclo[13.3.0.0]octadec-7-en-4-yl]carbonyl(1-methyl-cyclopropyl)sulfonamide]
Fold-Change A156S [1]: A (A represents a value smaller than 1)
Fold-Change R155Q [2]: A (A represents a value smaller than 1)
CC50 [3]: > 75 µM
IC50 [4]: < 1 µM
EC50 [5]: < 1 µM
CC50 ([6]; GS4.1 cells): 10 to 75 µM
EC50 [7]: < 1 µM
EC50 [8]: < 1 µM
Fold-Change D168A [9]: C (C represents a value greater than 10)

COc1ccc2c(O[C@H]3C[C@H]4C(=O)N(C)CCCC/C=C\[C@@H]5C[C@@]5(C(=O)NS(=O)(=O)C5CC5)NC(=O)N4C3)cc(-n3ccc(C(F)(F)F)n3)nc2c1Cl [Compound 91e, (Z)-(4R,6S,15S,17S)-[17-[8-chloro-7-methoxy-2-(3-trifluoromethyl-1H-pyrazol-1-yl)quinolin-4-yloxy]-13-N-methyl-2,14-dioxo-1,3,13-triazatricyclo[13.3.0.0]octadec-7-ene-4-yl]carbonyl(cyclopropyl)sulfonamide]
Fold-Change A156S [1]: A (A represents a value smaller than 1)
Fold-Change R155Q [2]: A (A represents a value smaller than 1)
CC50 [3]: > 75 µM
IC50 [4]: < 1 µM
EC50 [5]: < 1 µM
CC50 ([6]; GS4.1 cells): 10 to 75 µM
EC50 [7]: < 1 µM
EC50 [8, 10]: < 1 µM
Fold-Change D168A [9]: C (C represents a value greater than 10)
